Converted amounts (≈) assume the structure as drawn. Where two headings read alike, the source gives them in different places.
Columns and labels:
[1] = cited from earlier work
S. aureus ATCC 29213 = test: MIC determination; format: cell-based, Staphylococcus aureus; settings: for MIC: Staphylococcus aureus, read-out: MIC
S. epidermis ATCC 35547 = test: MIC determination; format: cell-based; settings: Tables 1 and 5; read-out: MIC
Excerpt: (§1) The ESKAPE organisms (E. faecium NCTC (ATCC 19734), S. aureus ATCC 29213, K. pneumonia ATCC 700603, A. baumannii ATCC 17961, P. aeruginosa ATCC 17853, E. aerogenes ATCC 35029) and E. coli ATCC 25922) in the initial screen, S. aureus ATCC 27660, S. epidermis ATCC 35547, S. haemolyticus ATCC 29970, S. oralis ATCC 9811, S. pyogenes ATCC 49399, B. cereus ATCC 13061, B. licheniformis ATCC 12759, and E. faecalis ATCC 29212 were purchased from the American Type Culture Collection (Manassas, Va., USA). S. aureus strains NRS100, NRS119, NRS120, VRS1, and VRS2 were obtained from the Network on Antimicrobial Resistance in Staphylococcus aureus (Chantilly, Va., USA). E. faecalis strains 201 and 99, and E. faecium strains 119-39A and 106 were collected from Wayne State University School of Medicine.
(§2) The procedure for MIC determination was the same as previously reported (Tran et al., Am. J. Clin. Dermatol. 2015; doi 10.1007/S40257-015-0125-9).

E. faecalis 99 (Van R) = test: MIC determination; format: cell-based; settings: Enterococcus faecalis; vancomycin-resistant clinical isolate; Tables 1 and 5
Excerpt: as §1, §2

[2] = system: S. haemolyticus ATCC 29970; test: MIC determination; format: cell-based; settings: Staphylococcus haemolyticus, ATCC29970; Tables 1 and 5; read-out: MIC
Excerpt: as §1, §2

S. aureus VRS2 = test: MIC determination; format: cell-based; settings: Staphylococcus aureus; vancomycin-resistant MRSA (vanA) isolate from Pennsylvania; Tables 1 and 5; read-out: MIC
Excerpt: as §1, §2

[3] = system: E. faecium 119-39A (Van S); test: MIC determination; format: cell-based; settings: Enterococcus faecium; vancomycin-susceptible clinical isolate; Tables 1 and 5; read-out: MIC
Excerpt: as §1, §2

B. cereus ATCC 13061 = test: MIC determination; format: cell-based; settings: Bacillus cereus, ATCC13061; Tables 1 and 5; read-out: MIC
Excerpt: as §1, §2

E. faecium 106 (Van R) = test: MIC determination; format: cell-based; settings: Enterococcus faecium; vancomycin-resistant clinical isolate; Tables 1 and 5; read-out: MIC
Excerpt: as §1, §2

S. aureus NRS100 (COL) = test: MIC determination; format: cell-based; settings: Staphylococcus aureus, mecA positive, resistant to methicillin, oxacillin, tetracycline, Tables 1 and 5, read-out: MIC
Excerpt: as §1, §2

S. aureus NRS120 = test: MIC determination; format: cell-based; settings: Staphylococcus aureus, mecA positive, linezolid-resistant, Tables 1 and 5, read-out: MIC
Excerpt: as §1, §2

[4] = system: B. licheniformis ATCC 12759; test: MIC determination; format: cell-based; settings: Bacillus licheniformis, ATCC12759; Tables 1 and 5; read-out: MIC
Excerpt: as §1, §2

S. aureus VRS1 = test: MIC determination; format: cell-based; settings: Staphylococcus aureus; vancomycin-resistant MRSA (vanA) isolate from Michigan; Tables 1 and 5; read-out: MIC
Excerpt: as §1, §2

S. aureus NRS119 = test: MIC determination; format: cell-based; settings: Staphylococcus aureus, mecA positive, linezolid-resistant, Tables 1 and 5, read-out: MIC
Excerpt: as §1, §2

E. faecalis ATCC 29212 = test: MIC determination; format: cell-based; settings: Enterococcus faecalis, ATCC29212; quality-control strain; Tables 1 and 5; read-out: MIC
Excerpt: as §1, §2

E. faecalis 201 (Van S) = test: MIC determination; format: cell-based; settings: Enterococcus faecalis; vancomycin-susceptible clinical isolate; Tables 1 and 5; read-out: MIC
Excerpt: as §1, §2

S. aureus ATCC 27660 [5] = test: MIC determination; format: cell-based; settings: Staphylococcus aureus, ATCC27660; mecA positive, resistant to methicillin, oxacillin, tetracycline; Tables 1 and 5; read-out: MIC
Excerpt: as §1, §2

E. faecium C68 = test: MIC determination; format: cell-based; settings: Enterococcus faecium, vancomycin-resistant clinical strain from Cleveland hospitals, Table 5
Excerpt: as §2

S. oralis ATCC 9811 = test: MIC determination; format: cell-based; settings: Streptococcus oralis, ATCC9811; Table 1; read-out: MIC
Excerpt: as §1, §2

S. pyogenes ATCC 49399 = test: MIC determination; format: cell-based; settings: Streptococcus pyogenes, ATCC49399; Table 1; read-out: MIC
Excerpt: as §1, §2

E. faecium NCTC 7171 = test: MIC determination; format: cell-based, Enterococcus faecium; settings: Enterococcus faecium, NCTC7171; Table 1; read-out: MIC
S. aureus ATCC 27660 [6] = test: Mouse peritonitis model of infection; format: in vivo; settings: po, single dose given at 1 h after infection
Protocol: Compounds 60b, 60c, 65b, 66b, 75b and 76b were evaluated in the mouse peritonitis model of infection (Table 2). We used the ICR out-bred strain of mice that provides a heterogeneous population, similar to the human situation, thus, ensuring the relevance of the antibacterial effect. This animal model of infection is widely used, it is easy to carry out, and the end points (death or survival) are rapidly assessed, making it less resource-intensive compared to other infection models. In addition, excellent correlation between MIC and ED50 has been shown for 14 β-lactam antibiotics using this model (Kratochwil et al., Biochem. Pharmacol. 2002, 64, 1355). The mouse peritonitis infection model continues to be an important model for evaluation of the efficacy of antibiotics against human pathogens. We use the iv route of administration in initial efficacy studies, as this allows us to test the efficacy without knowledge of the oral bioavailability of the lead. Evaluation was done at 20 mg/kg.
Female ICR mice (6-8 weeks old, ˜20-g body weight) were used for the PK and peritonitis studies. Animals were purchased from Harlan Laboratories, Inc. (Indianapolis, Ind., USA) and given Teklad 2019 Extruded Rodent Diet and water ad libitum. Mice were maintained in polycarbonate shoebox cages with ¼″ corncob (The Andersons Inc., Maumee, Ohio) and Alpha-dri (Sheperd Specialty Papers, Inc., Richland, Mich.) bedding under 12-h light/12-h dark cycle at 72±2° F.
The mouse peritonitis model was used with S. aureus ATCC 27660, as described previously (Tran et al., Am. J. Clin. Dermatol. 2015; doi 10.1007/S40257-015-0125-9). The final bacterial inocula contained 5×10^7 cfu/mL and 5% mucin (Sigma-Aldrich Chemical Co., St Louis, Mo., USA). Just prior to inoculation, bacteria at 10^8 cfu/mL were mixed 1:1 with 10% mucin. Mice (n=6 per group) were given 0.5 mL of the bacterial inocula intraperitoneally. Mice were given two iv doses of the compounds at 30 min and 7.5 h after infection by tail vein injection. […] Mice were monitored for 48 h, at which time the number of surviving mice were counted.
The effective dose that results in survival of 50% of the mice was determined using Probit analysis (XLSTAT, New York, N.Y.). Groups of six mice per dose level were evaluated in the mouse peritonitis infection model at iv doses of 2.5, 5, 7.5, 10, 15, and 20 mg/kg and after po doses at 2.5, 5, 10, 20, and 40 mg/kg. […]

[7] = ATCC29213, S. aureus ATCC29213, second numbering, compounds of Scheme 6
[8] = ATCC29213, quality-control, methicillin-susceptible strain, Tables 1 and 5

## Cc1onc(-c2ccccc2)c1C(=O)N[C@@H]1C(=O)N2[C@@H]1SC(C)(C)[C@@H]2C(=O)O [oxacillin]
[1]
  Plasma protein binding: > 91%

## Oc1ccc(-c2nc(-c3ccc(Oc4ccccc4)cc3Cl)no2)cc1 [Compound 52a, 4-(3-(2-chloro-4-phenoxyphenyl)-1,2,4-oxadiazol-5-yl)phenol]
S. aureus ATCC 29213; [7]
  MIC: 2 µg/mL (≈ 5.48 µM)
S. aureus ATCC 29213; [8]
  MIC: 2 µg/mL (≈ 5.48 µM)
S. epidermis ATCC 35547
  MIC: 4 µg/mL (≈ 11 µM)
E. faecalis 99 (Van R)
  MIC: 4 µg/mL (≈ 11 µM)
[2]
  MIC: 4 µg/mL (≈ 11 µM)
S. aureus VRS2
  MIC: 2 µg/mL (≈ 5.48 µM)
[3]
  MIC: 4 µg/mL (≈ 11 µM)
B. cereus ATCC 13061
  MIC: 4 µg/mL (≈ 11 µM)
E. faecium 106 (Van R)
  MIC: 4 µg/mL (≈ 11 µM)
S. aureus NRS100 (COL)
  MIC: 8 µg/mL (≈ 21.9 µM)
S. aureus NRS120
  MIC: 4 µg/mL (≈ 11 µM)
[4]
  MIC: 2 µg/mL (≈ 5.48 µM)
S. aureus VRS1
  MIC: 2 µg/mL (≈ 5.48 µM)
S. aureus NRS119
  MIC: 4 µg/mL (≈ 11 µM)
E. faecalis ATCC 29212
  MIC: 4 µg/mL (≈ 11 µM)
E. faecalis 201 (Van S)
  MIC: 4 µg/mL (≈ 11 µM)
S. aureus ATCC 27660 [5]
  MIC: 8 µg/mL (≈ 21.9 µM)
E. faecium C68
  MIC: 4 µg/mL (≈ 11 µM)

## CC(=O)NC[C@H]1CN(c2ccc(N3CCOCC3)c(F)c2)C(=O)O1 [linezolid, reference compound]
S. aureus ATCC 29213; [8]
  MIC: 4 µg/mL (≈ 11.9 µM)
S. epidermis ATCC 35547
  MIC: 1 µg/mL (≈ 2.96 µM)
E. faecalis 99 (Van R)
  MIC: 1 µg/mL (≈ 2.96 µM)
[2]
  MIC: 2 µg/mL (≈ 5.93 µM)
S. aureus VRS2
  MIC: 2 µg/mL (≈ 5.93 µM)
S. oralis ATCC 9811
  MIC: 1 µg/mL (≈ 2.96 µM)
[3]
  MIC: 2 µg/mL (≈ 5.93 µM)
B. cereus ATCC 13061
  MIC: 1 µg/mL (≈ 2.96 µM)
E. faecium 106 (Van R)
  MIC: 1 µg/mL (≈ 2.96 µM)
S. aureus NRS100 (COL)
  MIC: 2 µg/mL (≈ 5.93 µM)
S. aureus NRS120
  MIC: 32 µg/mL (≈ 94.9 µM)
[4]
  MIC: 1 µg/mL (≈ 2.96 µM)
S. aureus VRS1
  MIC: 2 µg/mL (≈ 5.93 µM)
S. aureus NRS119
  MIC: 32 µg/mL (≈ 94.9 µM)
E. faecalis ATCC 29212
  MIC: 2 µg/mL (≈ 5.93 µM)
E. faecalis 201 (Van S)
  MIC: 2 µg/mL (≈ 5.93 µM)
S. pyogenes ATCC 49399
  MIC: 1 µg/mL (≈ 2.96 µM)
S. aureus ATCC 27660 [5]
  MIC: 2 µg/mL (≈ 5.93 µM)
E. faecium NCTC 7171
  MIC: 2 µg/mL (≈ 5.93 µM)
S. aureus ATCC 27660 [6]; Staphylococcus aureus, ATCC27660, read-out: ED50
  ED50: 2.8 mg/kg
S. aureus ATCC 27660 [6]
  ED50: 2.8 mg/kg

## Oc1ccc(-c2nc(-c3ccc(Oc4ccccc4)c(O)c3)no2)cc1 [Compound 51a, 5-(5-(4-hydroxyphenyl)-1,2,4-oxadiazol-3-yl)-2-phenoxyphenol]
S. aureus ATCC 29213; [7]
  MIC: 2 µg/mL (≈ 5.77 µM)
S. aureus ATCC 29213; [8]
  MIC: 2 µg/mL (≈ 5.77 µM)
S. epidermis ATCC 35547
  MIC: 16 µg/mL (≈ 46.2 µM)
E. faecalis 99 (Van R)
  MIC: 16 µg/mL (≈ 46.2 µM)
[2]
  MIC: 8 µg/mL (≈ 23.1 µM)
S. aureus VRS2
  MIC: 8 µg/mL (≈ 23.1 µM)
[3]
  MIC: 8 µg/mL (≈ 23.1 µM)
B. cereus ATCC 13061
  MIC: 8 µg/mL (≈ 23.1 µM)
E. faecium 106 (Van R)
  MIC: 8 µg/mL (≈ 23.1 µM)
S. aureus NRS100 (COL)
  MIC: 16 µg/mL (≈ 46.2 µM)
S. aureus NRS120
  MIC: 8 µg/mL (≈ 23.1 µM)
[4]
  MIC: 16 µg/mL (≈ 46.2 µM)
S. aureus VRS1
  MIC: 8 µg/mL (≈ 23.1 µM)
S. aureus NRS119
  MIC: 8 µg/mL (≈ 23.1 µM)
E. faecalis ATCC 29212
  MIC: 8 µg/mL (≈ 23.1 µM)
E. faecalis 201 (Van S)
  MIC: 8 µg/mL (≈ 23.1 µM)
S. aureus ATCC 27660 [5]
  MIC: 16 µg/mL (≈ 46.2 µM)
E. faecium C68
  MIC: 8 µg/mL (≈ 23.1 µM)

## [N-]=[N+]=Nc1cc(-c2noc(-c3ccc(O)cc3)n2)ccc1Oc1ccccc1 [Compound 53a, 4-(3-(3-azido-4-phenoxyphenyl)-1,2,4-oxadiazol-5-yl)phenol]
S. aureus ATCC 29213; S. aureus ATCC29213, second numbering, compounds of Scheme 6
  antibacterial activity in words (SAR, C/D ring derivatives): demonstrated activity
S. aureus ATCC 29213; [8]
  MIC: 2 µg/mL (≈ 5.39 µM)
S. epidermis ATCC 35547
  MIC: 2 µg/mL (≈ 5.39 µM)
E. faecalis 99 (Van R)
  MIC: 4 µg/mL (≈ 10.8 µM)
[2]
  MIC: 2 µg/mL (≈ 5.39 µM)
S. aureus VRS2
  MIC: 2 µg/mL (≈ 5.39 µM)
[3]
  MIC: 4 µg/mL (≈ 10.8 µM)
B. cereus ATCC 13061
  MIC: 4 µg/mL (≈ 10.8 µM)
E. faecium 106 (Van R)
  MIC: 4 µg/mL (≈ 10.8 µM)
S. aureus NRS100 (COL)
  MIC: 4 µg/mL (≈ 10.8 µM)
S. aureus NRS120
  MIC: 4 µg/mL (≈ 10.8 µM)
[4]
  MIC: 4 µg/mL (≈ 10.8 µM)
S. aureus VRS1
  MIC: 2 µg/mL (≈ 5.39 µM)
S. aureus NRS119
  MIC: 4 µg/mL (≈ 10.8 µM)
E. faecalis ATCC 29212
  MIC: 2 µg/mL (≈ 5.39 µM)
E. faecalis 201 (Van S)
  MIC: 4 µg/mL (≈ 10.8 µM)
S. aureus ATCC 27660 [5]
  MIC: 4 µg/mL (≈ 10.8 µM)
E. faecium C68
  MIC: 4 µg/mL (≈ 10.8 µM)

## teicoplanin
[1]
  Plasma protein binding: > 91%

Source: patent US10662164B2, “Non-beta lactam antibiotics” (University of Notre Dame du Lac, priority 2014, dated 2020)
